Data: ChEMBL document CHEMBL6127131, “Design, Synthesis, and Biological Evaluation of New Selective PDE4 Inhibitors for Topical Treatment of Psoriasis” (J Med Chem, 2024)

Experiments:
[1] = target: T1, 3',5'-cyclic-AMP phosphodiesterase 4D (Homo sapiens, UniProt Q08499); test: Inhibition of recombinant full-length PDE4D2 (unknown origin) at 1 uM using FAM-cAMP as substrate preincubated for 15 mins followed by substrate addition and measured after 30 mins by plate reader assay relative to control; conditions: time 45.0 min
[2] = tested on: RAW264.7; test: Anti-inflammatory activity against LPS induced mouse RAW264.7 cells assessed as reduction in TNFalpha secretion at 10 uM incubated for 24 hrs by ELISA; assay type: functional
[3] = target: T1, 3',5'-cyclic-AMP phosphodiesterase 4D; test: Inhibition of recombinant full-length PDE4D2 (unknown origin) using FAM-cAMP as substrate preincubated for 15 mins followed by substrate addition and measured after 30 mins by plate reader assay
[4] = tested on: HaCaT; test: Anti-inflammatory activity against M5 induced human HaCaT cells assessed as reduction in TNFalpha secretion incubated for 24 hrs by ELISA; assay type: functional, cell-based
[5] = Cytotoxicity against human HaCaT cells incubated for 24 hrs by CCK8 assay; assay type: toxicity, cell-based
[6] = tested on: RAW264.7; test: Anti-inflammatory activity against LPS induced mouse RAW264.7 cells assessed as reduction in IL-6 secretion incubated for 24 hrs by ELISA; assay type: functional, cell-based; conditions: RAW264.7, 24 h
[7] = tested on: RAW264.7; test: Anti-inflammatory activity against LPS induced mouse RAW264.7 cells assessed as reduction in TNFalpha secretion incubated for 24 hrs by ELISA; assay type: functional, cell-based; conditions: RAW264.7, 24 h
[8] = Cytotoxicity against mouse RAW264.7 cells incubated for 24 hrs by CCK8 assay; assay type: toxicity, cell-based

T1 sequence (Q08499 whole entry): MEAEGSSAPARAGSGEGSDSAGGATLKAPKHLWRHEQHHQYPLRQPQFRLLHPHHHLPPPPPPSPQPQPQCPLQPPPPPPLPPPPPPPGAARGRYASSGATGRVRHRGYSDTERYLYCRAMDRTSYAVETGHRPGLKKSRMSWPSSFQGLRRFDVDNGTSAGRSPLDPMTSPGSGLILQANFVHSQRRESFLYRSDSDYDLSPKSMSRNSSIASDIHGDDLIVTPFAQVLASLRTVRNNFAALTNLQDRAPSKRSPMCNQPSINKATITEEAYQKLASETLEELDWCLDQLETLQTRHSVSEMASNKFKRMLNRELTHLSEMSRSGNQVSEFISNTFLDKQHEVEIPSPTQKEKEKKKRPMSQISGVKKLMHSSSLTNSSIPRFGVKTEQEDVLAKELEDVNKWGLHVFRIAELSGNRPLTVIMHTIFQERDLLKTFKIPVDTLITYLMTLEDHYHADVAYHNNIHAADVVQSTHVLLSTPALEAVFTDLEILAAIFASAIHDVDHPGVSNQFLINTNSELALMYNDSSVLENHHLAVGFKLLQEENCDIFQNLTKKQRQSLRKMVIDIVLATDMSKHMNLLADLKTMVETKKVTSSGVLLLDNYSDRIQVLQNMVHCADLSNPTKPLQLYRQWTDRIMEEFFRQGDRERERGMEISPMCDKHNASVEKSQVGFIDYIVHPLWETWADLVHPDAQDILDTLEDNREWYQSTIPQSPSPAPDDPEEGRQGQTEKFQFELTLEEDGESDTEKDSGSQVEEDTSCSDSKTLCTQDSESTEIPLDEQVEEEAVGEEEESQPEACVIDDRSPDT

Compound	inhibition [1] [%]	inhibition at 10 µM [2] [%]	further results
O=C(NCc1c(F)cc(F)cc1F)c1cc2nccc(-c3ccc(OC(F)F)c(OCC4CC4)c3)n2n1	38.4	23.3	–
O=C(Nc1ccncc1)c1csc(-c2ccc(OC(F)F)c(OCC3CC3)c2)n1	–	25.6	IC50 [3]: 77.2 nM
O=C(NCc1ccc(F)cc1F)c1csc(-c2ccc(OC(F)F)c(OCC3CC3)c2)n1	79.1	17.6	–
O=C(NCC1CCOCC1)c1cc2nccc(-c3ccc(OC(F)F)c(OCC4CC4)c3)n2n1	62.7	38.6	–
O=C(NCc1cccc(F)c1F)c1cc2nccc(-c3ccc(OC(F)F)c(OCC4CC4)c3)n2n1	64.6	13.7	–
O=C(NCc1cccnc1)c1cc2nccc(-c3ccc(OC(F)F)c(OCC4CC4)c3)n2n1	49.3	6.6	–
O=C(NCc1ccccc1)c1csc(-c2ccc(OC(F)F)c(OCC3CC3)c2)n1	–	29	IC50 [3]: 25.9 nM
O=C(O)c1csc(-c2ccc(OC(F)F)c(OCC3CC3)c2)n1	78.5	22.9	–
O=C(NCc1ncccn1)c1cc2nccc(-c3ccc(OC(F)F)c(OCC4CC4)c3)n2n1	70.7	25.1	–
O=C(NCc1c(F)cccc1F)c1cc2nccc(-c3ccc(OC(F)F)c(OCC4CC4)c3)n2n1	41.9	27.9	–
O=C(NCc1ccc(F)cc1F)c1cc2nccc(-c3ccc(OC(F)F)c(OCC4CC4)c3)n2n1	–	13.6	IC50 [3]: 558 nM
O=C(NCc1ccc2ccccc2c1)c1csc(-c2ccc(OC(F)F)c(OCC3CC3)c2)n1	78	14	–
O=C(NCc1ccc2ccccc2c1)c1cc2nccc(-c3ccc(OC(F)F)c(OCC4CC4)c3)n2n1	38.3	12.4	–
O=C(NCc1c(F)cccc1F)c1csc(-c2ccc(OC(F)F)c(OCC3CC3)c2)n1	–	–	IC50 [4]: 22600 nM; IC50 [3]: 9.36 nM; CC50 at 24 h [5]: > 50000 nM; IC50 [6]: 57000 nM; IC50 [7]: 48400 nM; CC50 at 24 h [8]: > 50000 nM
O=C(NCc1ccc2ccccc2c1)c1cnn2c(-c3ccc(OC(F)F)c(OCC4CC4)c3)ccnc12	< 73.1	–	–
O=C(NCc1cc(F)ccc1F)c1cc2nccc(-c3ccc(OC(F)F)c(OCC4CC4)c3)n2n1	42.6	16.3	–
O=C(NCc1cccc(F)c1F)c1csc(-c2ccc(OC(F)F)c(OCC3CC3)c2)n1	–	24.8	IC50 [3]: 25 nM
O=C(Nc1ccccc1)c1cc2nccc(-c3ccc(OC(F)F)c(OCC4CC4)c3)n2n1	89.2	16.5	–
O=C(Nc1nc2ccccc2s1)c1csc(-c2ccc(OC(F)F)c(OCC3CC3)c2)n1	75.3	21.7	–
O=C(NCc1ccccc1)c1cc2nccc(-c3ccc(OC(F)F)c(OCC4CC4)c3)n2n1	–	19.6	IC50 [3]: 546 nM
O=C(NCc1c(F)cc(F)cc1F)c1csc(-c2ccc(OC(F)F)c(OCC3CC3)c2)n1	–	34	IC50 [3]: 25.7 nM
O=C(Nc1ccccc1)c1csc(-c2ccc(OC(F)F)c(OCC3CC3)c2)n1	72.4	26.5	–

Continued, in another order:

inhibition [1] [%]	Compound	inhibition at 10 µM [2] [%]	further results
< 73.1	O=C(NCc1cccc(F)c1F)c1cnn2c(-c3ccc(OC(F)F)c(OCC4CC4)c3)ccnc12	–	–
< 73.1	O=C(Nc1ccncc1)c1cnn2c(-c3ccc(OC(F)F)c(OCC4CC4)c3)ccnc12	–	–
< 73.1	CC(C)(C)CNC(=O)c1cnn2c(-c3ccc(OC(F)F)c(OCC4CC4)c3)ccnc12	–	–
< 73.1	O=C(Nc1ccc2cc[nH]c2c1)c1cnn2c(-c3ccc(OC(F)F)c(OCC4CC4)c3)ccnc12	–	–
< 73.1	O=C(NCc1ccccc1)c1cnn2c(-c3ccc(OC(F)F)c(OCC4CC4)c3)ccnc12	–	–
< 73.1	O=C(Nc1nccs1)c1cnn2c(-c3ccc(OC(F)F)c(OCC4CC4)c3)ccnc12	–	–
< 73.1	O=C(NCc1cccnc1)c1cnn2c(-c3ccc(OC(F)F)c(OCC4CC4)c3)ccnc12	–	–
< 73.1	O=C(NCC1CCOCC1)c1cnn2c(-c3ccc(OC(F)F)c(OCC4CC4)c3)ccnc12	–	–
< 73.1	Cn1cc(NC(=O)c2cnn3c(-c4ccc(OC(F)F)c(OCC5CC5)c4)ccnc23)cn1	–	–
< 73.1	O=C(Nc1ccccc1)c1cnn2c(-c3ccc(OC(F)F)c(OCC4CC4)c3)ccnc12	–	–
< 73.1	O=C(Nc1ccc2ncsc2c1)c1cnn2c(-c3ccc(OC(F)F)c(OCC4CC4)c3)ccnc12	–	–
< 73.1	O=C(NCc1c(F)cc(F)cc1F)c1cnn2c(-c3ccc(OC(F)F)c(OCC4CC4)c3)ccnc12	–	–
< 73.1	O=C(NCc1cc(F)ccc1F)c1cnn2c(-c3ccc(OC(F)F)c(OCC4CC4)c3)ccnc12	–	–
64.8	O=C(Nc1nccs1)c1csc(-c2ccc(OC(F)F)c(OCC3CC3)c2)n1	14.6	–
< 73.1	O=C(NCc1c(F)cccc1F)c1cnn2c(-c3ccc(OC(F)F)c(OCC4CC4)c3)ccnc12	–	–
< 73.1	CCC(CC)NC(=O)c1cnn2c(-c3ccc(OC(F)F)c(OCC4CC4)c3)ccnc12	–	–
< 73.1	O=C(NC1CCCCC1)c1cnn2c(-c3ccc(OC(F)F)c(OCC4CC4)c3)ccnc12	–	–
< 73.1	O=C(NC1CC1)c1cnn2c(-c3ccc(OC(F)F)c(OCC4CC4)c3)ccnc12	–	–
< 73.1	O=C(NCc1ccc(F)cc1F)c1cnn2c(-c3ccc(OC(F)F)c(OCC4CC4)c3)ccnc12	–	–
< 73.1	COc1ccc(CNC(=O)c2cnn3c(-c4ccc(OC(F)F)c(OCC5CC5)c4)ccnc23)cn1	–	–
86.1	O=C(Nc1nccs1)c1cc2nccc(-c3ccc(OC(F)F)c(OCC4CC4)c3)n2n1	25.8	–
46.7	Cn1cc(NC(=O)c2cc3nccc(-c4ccc(OC(F)F)c(OCC5CC5)c4)n3n2)cn1	15.4	–
< 73.1	CC(C)CNC(=O)c1cnn2c(-c3ccc(OC(F)F)c(OCC4CC4)c3)ccnc12	–	–
